Here are results for two compounds from PMC8091115, “Redundancy in Aromatic O-Demethylation and Ring-Opening Reactions in Novosphingobium aromaticivorans and Their Impact in the Metabolism of Plant-Derived Phenolics” (Applied and Environmental Microbiology, 2021).

The structures appear in SMILES notation.

The target in one test is T1, LigM (Novosphingobium aromaticivorans, UniProt Q2G4C6).
T1 construct: gene Saro_2861; full length, N-terminal His8-TEV tag cleaved, from E. coli B834
As to the kind of experiment: HPLC-MS substrate depletion and product formation. The test is classed as biochemical. As to conditions: tetrahydrofolate as methyl acceptor, anaerobic, 30 C, phosphate buffer.

A further test addresses T2, DesA (Novosphingobium aromaticivorans, UniProt Q2G5N3).
T2 construct: gene Saro_2404; full length, N-terminal His8-TEV tag cleaved, from E. coli B834; b91 prints Saro_2402 (probable misprint, Saro_2404 everywhere else)
Briefly: HPLC-MS substrate depletion and product formation. The test is classed as biochemical. As to conditions: tetrahydrofolate as methyl acceptor, anaerobic, 30 C, phosphate buffer.

T1 sequence (Q2G4C6 entry or part of it): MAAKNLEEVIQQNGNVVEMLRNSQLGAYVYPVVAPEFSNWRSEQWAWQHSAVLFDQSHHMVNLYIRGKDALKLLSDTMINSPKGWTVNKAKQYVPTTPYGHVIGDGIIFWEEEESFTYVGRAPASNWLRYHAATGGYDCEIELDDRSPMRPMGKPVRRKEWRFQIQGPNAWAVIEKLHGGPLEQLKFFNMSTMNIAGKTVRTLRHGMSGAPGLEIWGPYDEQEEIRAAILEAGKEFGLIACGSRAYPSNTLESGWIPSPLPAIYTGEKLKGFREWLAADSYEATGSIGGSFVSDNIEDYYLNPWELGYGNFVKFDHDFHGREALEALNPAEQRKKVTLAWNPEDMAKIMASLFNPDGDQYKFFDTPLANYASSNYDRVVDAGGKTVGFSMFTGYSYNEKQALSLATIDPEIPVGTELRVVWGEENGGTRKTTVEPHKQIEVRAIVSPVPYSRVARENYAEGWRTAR
T2 sequence (Q2G5N3 entry or part of it): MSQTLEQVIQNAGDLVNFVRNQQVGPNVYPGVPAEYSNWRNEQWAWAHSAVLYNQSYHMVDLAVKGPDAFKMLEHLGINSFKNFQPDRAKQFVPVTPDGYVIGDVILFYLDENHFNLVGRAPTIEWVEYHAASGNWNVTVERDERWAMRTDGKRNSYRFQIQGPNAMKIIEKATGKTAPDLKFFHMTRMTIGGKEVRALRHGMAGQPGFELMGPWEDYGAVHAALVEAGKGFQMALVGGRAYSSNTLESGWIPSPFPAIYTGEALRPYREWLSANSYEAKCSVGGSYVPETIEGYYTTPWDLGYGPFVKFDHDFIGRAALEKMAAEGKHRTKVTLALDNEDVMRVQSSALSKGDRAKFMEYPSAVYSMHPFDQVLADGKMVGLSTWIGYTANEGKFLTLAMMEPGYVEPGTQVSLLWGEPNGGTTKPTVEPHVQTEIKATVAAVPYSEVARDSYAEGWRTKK

For the compound `COc1cc(C(=O)O)cc(O)c1O` [3-MGA], at LigM, the “HPLC-MS substrate depletion and product formation” value is reported as “LigM protein of N. aromaticivorans was able to convert 3-MGA into GA”.

In the case of `COc1cc(C(=O)O)ccc1O` [vanillic acid], the “HPLC-MS substrate depletion and product formation” value is “able to convert 3-MGA into GA and vanillic acid into PCA at comparable rates” at LigM; “demethylated both syringic acid and, somewhat more slowly, vanillic acid” at DesA.
